Laboratory results from patent US12371428B2 (Exelixis, Inc., priority 2019, dated 2025).

Assays:
[1] = target: KDR (phospho-KDR, VEGF165-stimulated HUVEC cells) (Homo sapiens (Human), UniProt P35968); assay: KDR autophosphorylation ELISA in HUVEC cells (Example G); assay type: cell-based; settings: cellular activity; KDR autophosphorylation ELISA in HUVEC cells
Summary of the method: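 Read-out is phospho-KDR measured by ELISA in lysates of VEGF165-stimulated (100 ng/mL, 5 min) HUVEC that were serum-starved 24 h and then pre-exposed 1 h to compound across 8 doses in 0.3% DMSO. Unstimulated lysates defined 0% and stimulated vehicle lysates 100% activity; IC50 values come from 4-parameter logistic regression.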

[2] = target: Human KDR (residues 790-1356) (Homo sapiens (Human), UniProt P35968); assay: Human KDR kinase assay, HTRF KinEase (Example B-2); assay type: biochemical; settings: protocol of Example B-2 (other compounds)
Chain of Human KDR (residues 790-1356) (P35968 790-1356): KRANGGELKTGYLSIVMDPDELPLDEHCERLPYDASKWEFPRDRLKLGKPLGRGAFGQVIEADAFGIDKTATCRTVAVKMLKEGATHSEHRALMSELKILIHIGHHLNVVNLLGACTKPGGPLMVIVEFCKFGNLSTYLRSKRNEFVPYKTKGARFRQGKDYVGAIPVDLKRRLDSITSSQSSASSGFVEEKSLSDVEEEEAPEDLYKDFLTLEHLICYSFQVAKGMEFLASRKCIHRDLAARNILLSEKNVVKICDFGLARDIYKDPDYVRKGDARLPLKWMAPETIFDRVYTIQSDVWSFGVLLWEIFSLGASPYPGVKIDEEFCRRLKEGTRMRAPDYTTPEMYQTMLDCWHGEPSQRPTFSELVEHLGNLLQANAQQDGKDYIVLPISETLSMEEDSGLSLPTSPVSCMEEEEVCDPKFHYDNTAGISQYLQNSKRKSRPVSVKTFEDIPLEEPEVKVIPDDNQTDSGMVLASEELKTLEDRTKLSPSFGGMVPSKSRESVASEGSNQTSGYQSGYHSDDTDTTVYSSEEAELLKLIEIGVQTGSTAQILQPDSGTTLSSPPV
Summary of the method: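 Ten compound concentrations (3% DMSO final) were pre-plated, then KDR (790-1356) with biotinylated peptide in Mg/Mn/DTT buffer was added; ATP at Km (4.0 μM) started a 40 min room-temperature reaction. Detection used Eu-TK antibody and SA-XL665 in EDTA buffer; activity normalized to DMSO and reference inhibitor, IC50 by logistic fit.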

[3] = target: Met (phospho-Met, HGF-stimulated PC-3 prostate cancer cells) (Homo sapiens (Human), UniProt P08581); assay: Met autophosphorylation ELISA in PC-3 cells (Example F); assay type: cell-based; settings: cellular activity; Met autophosphorylation ELISA in PC-3 cells; read-out: c-Met IC50
Chain of Met (phospho-Met, HGF-stimulated PC-3 prostate cancer cells) (P08581 25-1390): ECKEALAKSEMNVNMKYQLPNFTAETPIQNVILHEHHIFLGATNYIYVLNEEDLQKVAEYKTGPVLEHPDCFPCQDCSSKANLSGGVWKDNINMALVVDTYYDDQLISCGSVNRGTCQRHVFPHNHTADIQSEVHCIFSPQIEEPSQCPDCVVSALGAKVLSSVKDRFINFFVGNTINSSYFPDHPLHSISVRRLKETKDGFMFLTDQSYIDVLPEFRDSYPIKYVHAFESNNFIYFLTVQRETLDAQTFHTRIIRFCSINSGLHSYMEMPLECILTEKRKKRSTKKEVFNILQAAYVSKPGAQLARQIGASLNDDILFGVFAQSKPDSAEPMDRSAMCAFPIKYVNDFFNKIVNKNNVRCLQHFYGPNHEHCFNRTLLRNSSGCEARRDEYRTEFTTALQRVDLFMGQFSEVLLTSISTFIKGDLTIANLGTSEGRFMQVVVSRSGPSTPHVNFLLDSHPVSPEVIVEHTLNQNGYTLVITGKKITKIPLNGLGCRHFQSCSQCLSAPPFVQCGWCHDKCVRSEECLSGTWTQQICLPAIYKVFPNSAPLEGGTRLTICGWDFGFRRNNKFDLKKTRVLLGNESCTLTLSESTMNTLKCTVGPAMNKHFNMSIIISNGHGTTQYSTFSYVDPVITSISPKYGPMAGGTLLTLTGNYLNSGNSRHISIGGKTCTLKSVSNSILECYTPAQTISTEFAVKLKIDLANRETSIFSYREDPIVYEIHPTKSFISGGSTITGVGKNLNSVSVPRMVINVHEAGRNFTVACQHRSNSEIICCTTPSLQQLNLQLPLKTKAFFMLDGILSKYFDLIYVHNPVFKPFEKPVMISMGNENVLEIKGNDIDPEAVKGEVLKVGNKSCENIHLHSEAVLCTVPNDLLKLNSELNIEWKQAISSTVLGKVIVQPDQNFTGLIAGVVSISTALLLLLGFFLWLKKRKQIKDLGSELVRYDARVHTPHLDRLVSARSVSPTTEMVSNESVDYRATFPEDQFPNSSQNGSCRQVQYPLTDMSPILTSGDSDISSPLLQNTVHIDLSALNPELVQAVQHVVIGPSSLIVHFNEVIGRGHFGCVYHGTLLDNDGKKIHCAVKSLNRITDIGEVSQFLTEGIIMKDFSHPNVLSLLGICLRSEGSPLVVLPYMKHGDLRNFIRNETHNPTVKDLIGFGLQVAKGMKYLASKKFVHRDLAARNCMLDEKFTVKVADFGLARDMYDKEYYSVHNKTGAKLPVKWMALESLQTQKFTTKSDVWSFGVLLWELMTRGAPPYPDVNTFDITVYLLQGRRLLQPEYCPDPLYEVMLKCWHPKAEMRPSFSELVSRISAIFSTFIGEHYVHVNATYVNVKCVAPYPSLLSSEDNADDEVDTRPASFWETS
Summary of the method: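 Serum-starved (3 h) PC-3 cells were treated 1 h with compounds (8-point curve, 0.3% DMSO), then stimulated with 100 ng/mL human HGF for 10 min. Lysate phospho-Met (panTyr) was measured by sandwich ELISA, normalised to DMSO and reference-inhibitor controls. IC50 came from 4-parameter logistic fit.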

Chain of KDR (phospho-KDR, VEGF165-stimulated HUVEC cells) (P35968 20-1356): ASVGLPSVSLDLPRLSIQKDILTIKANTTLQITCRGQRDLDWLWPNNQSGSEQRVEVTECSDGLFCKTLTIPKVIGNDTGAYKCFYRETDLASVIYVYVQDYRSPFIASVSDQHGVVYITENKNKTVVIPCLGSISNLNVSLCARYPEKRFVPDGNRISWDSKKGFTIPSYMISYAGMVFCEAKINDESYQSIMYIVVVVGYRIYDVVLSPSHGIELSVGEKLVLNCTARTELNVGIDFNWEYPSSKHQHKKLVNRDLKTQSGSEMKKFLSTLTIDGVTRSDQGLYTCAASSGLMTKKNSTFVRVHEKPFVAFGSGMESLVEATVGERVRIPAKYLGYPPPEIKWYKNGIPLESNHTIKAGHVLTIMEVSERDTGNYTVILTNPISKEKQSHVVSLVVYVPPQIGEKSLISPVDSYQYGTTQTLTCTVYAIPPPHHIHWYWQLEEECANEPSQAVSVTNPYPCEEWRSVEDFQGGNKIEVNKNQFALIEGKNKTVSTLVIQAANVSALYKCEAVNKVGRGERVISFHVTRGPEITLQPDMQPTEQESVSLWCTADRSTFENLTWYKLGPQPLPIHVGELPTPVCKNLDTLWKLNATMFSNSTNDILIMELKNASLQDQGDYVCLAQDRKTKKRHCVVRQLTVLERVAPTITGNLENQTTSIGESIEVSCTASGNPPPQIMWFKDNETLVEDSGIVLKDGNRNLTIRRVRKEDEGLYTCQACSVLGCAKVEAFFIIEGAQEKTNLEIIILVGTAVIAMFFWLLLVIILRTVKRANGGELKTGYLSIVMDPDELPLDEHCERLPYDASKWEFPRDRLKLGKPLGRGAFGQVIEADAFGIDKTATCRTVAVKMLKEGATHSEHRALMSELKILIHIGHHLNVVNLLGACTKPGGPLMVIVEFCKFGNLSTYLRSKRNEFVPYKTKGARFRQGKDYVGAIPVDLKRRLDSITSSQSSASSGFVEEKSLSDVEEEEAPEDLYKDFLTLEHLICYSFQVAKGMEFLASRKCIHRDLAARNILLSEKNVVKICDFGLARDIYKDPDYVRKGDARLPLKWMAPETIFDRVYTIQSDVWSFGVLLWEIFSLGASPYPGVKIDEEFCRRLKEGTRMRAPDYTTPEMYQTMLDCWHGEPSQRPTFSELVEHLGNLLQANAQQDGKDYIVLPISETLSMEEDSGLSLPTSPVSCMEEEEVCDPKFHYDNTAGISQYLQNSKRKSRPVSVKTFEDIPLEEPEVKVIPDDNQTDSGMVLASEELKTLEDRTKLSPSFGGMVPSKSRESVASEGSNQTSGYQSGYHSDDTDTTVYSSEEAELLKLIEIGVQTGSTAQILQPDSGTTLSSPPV

Structure (SMILES) | IC50 [1] [nM] | IC50 [2] [nM] | IC50 [3] [nM]
COc1cc2nccc(Oc3ncc(NC(=O)c4cn(-c5cnn(C)c5)cc(-c5ccc(F)cc5)c4=O)cc3F)c2cc1OC [Compound 401, N-[6-(6,7-dimethoxyquinolin-4-yl)oxy-5-fluoropyridin-3-yl]-5-(4-fluorophenyl)-1-(1-methylpyrazol-4-yl)-4-oxopyridine-3-carboxamide] | > 300 | > 300 | < 100
COc1cnc2c(Oc3ccc(NC(=O)c4cnc(C)c(-c5c(C)cc(F)cc5C)c4O)cc3F)ccnc2c1 [Compound 417, 5-(4-fluoro-2,6-dimethylphenyl)-N-[3-fluoro-4-[(7-methoxy-1,5-naphthyridin-4-yl)oxy]phenyl]-4-hydroxy-6-methylpyridine-3-carboxamide] | 100 to 300 | > 300 | < 100
COc1cc2nccc(Oc3ccc(NC(=O)c4cn(-c5cnn(C(F)F)c5)cc(-c5ccc(F)cc5)c4=O)cc3F)c2nc1OC [Compound 60, 1-[1-(Difluoromethyl)pyrazol-4-yl]-N-[4-[(6,7-dimethoxy-1,5-naphthyridin-4-yl)oxy]-3-fluorophenyl]-5-(4-fluorophenyl)-4-oxopyridine-3-carboxamide] | > 300 | > 300 | < 100
COc1cc2nccc(Oc3ccc(NC(=O)c4ncnc(-c5ccc(F)cc5)c4O)cc3F)c2nc1OC [Compound 96, N-[4-[(6,7-Dimethoxy-1,5-naphthyridin-4-yl)oxy]-3-fluorophenyl]-6-(4-fluorophenyl)-5-hydroxypyrimidine-4-carboxamide] | < 100 | < 100 | < 100
Cc1cc(F)ccc1-c1c(C)ncc(C(=O)Nc2ccc(Oc3ccnc4cc(C)c(F)nc34)c(F)c2)c1O [Compound 427, N-[3-fluoro-4-[(6-fluoro-7-methyl-1,5-naphthyridin-4-yl)oxy]phenyl]-5-(4-fluoro-2-methylphenyl)-4-hydroxy-6-methylpyridine-3-carboxamide] | < 100 | > 300 | < 100
Cc1cc2nccc(Oc3ccc(NC(=O)c4cnc(C)c(-c5ccc(F)cc5)c4O)cc3F)c2nc1OCCCN1CCOCC1 [Compound 438, N-[3-fluoro-4-[[7-methyl-6-(3-morpholin-4-ylpropoxy)-1,5-naphthyridin-4-yl]oxy]phenyl]-5-(4-fluorophenyl)-4-hydroxy-6-methylpyridine-3-carboxamide] | < 100 | < 100 | < 100
COc1ccc2nccc(Oc3ccc(NC(=O)c4c(C)nc(C)c(-c5ccc(F)cc5)c4O)cc3F)c2n1 [Compound 67, N-[3-Fluoro-4-[(6-methoxy-1,5-naphthyridin-4-yl)oxy]phenyl]-5-(4-fluorophenyl)-4-hydroxy-2,6-dimethylpyridine-3-carboxamide] | < 100 | < 100 | < 100
COc1cc2nccc(Oc3ccc(NC(=O)c4n[nH]c(C)c(-c5ccc(F)cc5C)c4=O)cc3F)c2nc1OC [Compound 90, N-[4-[(6,7-Dimethoxy-1,5-naphthyridin-4-yl)oxy]-3-fluorophenyl]-5-(4-fluoro-2-methylphenyl)-6-methyl-4-oxo-1H-pyridazine-3-carboxamide] | < 100 | < 100 | < 100
COc1cc2nccc(Oc3ncc(NC(=O)c4cn(-c5ccn(C)n5)cc(-c5ccc(F)cc5)c4=O)cc3F)c2cc1OC [Compound 402, N-[6-(6,7-dimethoxyquinolin-4-yl)oxy-5-fluoropyridin-3-yl]-5-(4-fluorophenyl)-1-(1-methylpyrazol-3-yl)-4-oxopyridine-3-carboxamide] | > 300 | > 300 | < 100
CCn1cc(C(=O)Nc2ccc(Oc3ccnc4cc(OC)c(OC)nc34)c(F)c2)c(=O)c(-c2ccc(F)cc2)c1C [Compound 63, N-[4-[(6,7-Dimethoxy-1,5-naphthyridin-4-yl)oxy]-3-fluorophenyl]-1-ethyl-5-(4-fluorophenyl)-6-methyl-4-oxopyridine-3-carboxamide] | < 100 | < 100 | < 100
COc1cc2nccc(Oc3ccc(NC(=O)c4nn(C)c(C)c(-c5ccc(F)cc5)c4=O)cc3F)c2nc1OC [Compound 92, N-[4-[(6,7-Dimethoxy-1,5-naphthyridin-4-yl)oxy]-3-fluorophenyl]-5-(4-fluorophenyl)-1,6-dimethyl-4-oxopyridazine-3-carboxamide] | < 100 | 100 to 300 | < 100
COc1cc2nccc(Oc3ccc(NC(=O)c4cn(C)c(C)c(-c5ccc(F)cc5C)c4=O)cc3F)c2nc1OC [Compound 75, N-[4-[(6,7-Dimethoxy-1,5-naphthyridin-4-yl)oxy]-3-fluorophenyl]-5-(4-fluoro-2-methylphenyl)-1,6-dimethyl-4-oxopyridine-3-carboxamide] | < 100 | 100 to 300 | < 100
COc1cnc2c(Oc3ccc(NC(=O)c4cn(C)c(Cl)c(-c5ccc(F)cc5)c4=O)cc3F)ccnc2c1 [Compound 411, 6-chloro-N-[3-fluoro-4-[(7-methoxy-1,5-naphthyridin-4-yl)oxy]phenyl]-5-(4-fluorophenyl)-1-methyl-4-oxopyridine-3-carboxamide] | > 300 | > 300 | < 100
COCCOc1nc2c(Oc3ccc(NC(=O)c4cnc(C)c(-c5ccc(F)cc5)c4O)cc3)ccnc2cc1C [Compound 437, 5-(4-fluorophenyl)-4-hydroxy-N-[4-[[6-(2-methoxyethoxy)-7-methyl-1,5-naphthyridin-4-yl]oxy]phenyl]-6-methylpyridine-3-carboxamide] | < 100 | < 100 | < 100
CCc1cnc2c(Oc3ccc(NC(=O)c4cnc(C)c(-c5ccc(F)cc5)c4O)cc3F)ccnc2c1 [Compound 418, N-[4-[(7-ethyl-1,5-naphthyridin-4-yl)oxy]-3-fluorophenyl]-5-(4-fluorophenyl)-4-hydroxy-6-methylpyridine-3-carboxamide] | < 100 | 100 to 300 | < 100
COc1cc2nccc(Oc3ccc(NC(=O)c4cc(C(C)=O)c(C)n(-c5ccc(F)cc5)c4=O)cc3F)c2nc1OC [Compound 86, 5-Acetyl-N-[4-[(6,7-dimethoxy-1,5-naphthyridin-4-yl)oxy]-3-fluorophenyl]-1-(4-fluorophenyl)-6-methyl-2-oxopyridine-3-carboxamide] | 100 to 300 | > 300 | < 100
COc1nc2c(Oc3ccc(NC(=O)c4c(C)nc(C)c(-c5ccc(F)cc5)c4O)cc3F)ccnc2cc1O [Compound 431, N-[3-fluoro-4-[(7-hydroxy-6-methoxy-1,5-naphthyridin-4-yl)oxy]phenyl]-5-(4-fluorophenyl)-4-hydroxy-2,6-dimethylpyridine-3-carboxamide] | < 100 | < 100 | < 100
COc1cc2nccc(Oc3ccc(NC(=O)c4cn(C)c(C)c(-c5ccc(F)cc5)c4=O)cc3)c2nc1OC [Compound 65, N-[4-[(6,7-Dimethoxy-1,5-naphthyridin-4-yl)oxy]phenyl]-5-(4-fluorophenyl)-1,6-dimethyl-4-oxopyridine-3-carboxamide] | < 100 | < 100 | < 100
COc1cc2nccc(Oc3ccc(NC(=O)c4cn(C)c(OC)c(-c5ccc(F)cc5)c4=O)cc3F)c2nc1OC [Compound 78, N-[4-[(6,7-Dimethoxy-1,5-naphthyridin-4-yl)oxy]-3-fluorophenyl]-5-(4-fluorophenyl)-6-methoxy-1-methyl-4-oxopyridine-3-carboxamide] | 100 to 300 | < 100 | < 100
COc1cc2nccc(Oc3ccc(NC(=O)c4cn(CC(F)(F)F)c(C)c(-c5ccc(F)cc5)c4=O)cc3F)c2nc1OC [Compound 74, N-[4-[(6,7-Dimethoxy-1,5-naphthyridin-4-yl)oxy]-3-fluorophenyl]-5-(4-fluorophenyl)-6-methyl-4-oxo-1-(2,2,2-trifluoroethyl)pyridine-3-carboxamide] | 100 to 300 | < 100 | < 100
COc1cc2nccc(Oc3ccc(NC(=O)c4cc(C#N)c(C)n(-c5ccc(F)cc5)c4=O)cc3F)c2nc1OC [Compound 87, 5-Cyano-N-[4-[(6,7-dimethoxy-1,5-naphthyridin-4-yl)oxy]-3-fluorophenyl]-1-(4-fluorophenyl)-6-methyl-2-oxopyridine-3-carboxamide] | > 300 | > 300 | < 100
COc1ccc2nccc(Oc3ccc(NC(=O)c4cn(C5CC5)c(C)c(-c5ccc(F)cc5C)c4=O)cc3F)c2n1 [Compound 441, 1-cyclopropyl-N-[3-fluoro-4-[(6-methoxy-1,5-naphthyridin-4-yl)oxy]phenyl]-5-(4-fluoro-2-methylphenyl)-6-methyl-4-oxopyridine-3-carboxamide] | > 300 | > 300 | < 100
CCOc1c(-c2ccc(F)cc2)cnc(C)c1C(=O)Nc1ccc(Oc2ccnc3cc(OC)c(OC)nc23)c(F)c1 [Compound 403, N-[4-[(6,7-dimethoxy-1,5-naphthyridin-4-yl)oxy]-3-fluorophenyl]-4-ethoxy-5-(4-fluorophenyl)-2-methylpyridine-3-carboxamide] | 100 to 300 | > 300 | < 100
